The record followed here is PubChem BioAssay (NCI).

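Results reflect a 48-hour exposure of cells in 96-well plates to compound at five concentrations. Definition used: TGI = concentration required for complete inhibition of growth.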

Test systems include SW-620 colon; NCI/ADR-RES ovarian; OVCAR-4 ovarian; TK-10 renal; PC-3 prostate; HL-60(TB) leukemia; SK-MEL-5 melanoma; MDA-MB-435; HCC-2998 colon; U251 CNS.
What all share (assay): NCI-60 cell line screen, 48 h

Take `CC(=O)NC1(c2cc3ccccc3s2)CCCCCC1`: the TGI with SW-620 colon was > 100 µM; in the assay on NCI/ADR-RES ovarian it was > 100 µM; in the assay with OVCAR-4 ovarian, > 100 µM; in the assay with TK-10 renal it was > 100 µM; in the assay on PC-3 prostate it was 60.8 µM; in the assay on HL-60(TB) leukemia, 55.4 µM. The TGI in the assay with SK-MEL-5 melanoma was 66.7 µM; in the assay with MDA-MB-435, > 100 µM; in the assay on HCC-2998 colon, > 100 µM; in the assay with U251 CNS, > 100 µM.

As for `NC(Cc1ccc(N(CCCl)CCCl)cc1)C(=O)NC(CCC(=O)O)C(=O)O` (stereo not given), the TGI in the assay with SW-620 colon, in the assay on NCI/ADR-RES ovarian, in the assay on OVCAR-4 ovarian, in the assay on TK-10 renal, in the assay with PC-3 prostate and in the assay with HL-60(TB) leukemia was > 100 µM throughout. Further, the TGI in the assay on SK-MEL-5 melanoma, in the assay with MDA-MB-435, in the assay with HCC-2998 colon and in the assay with U251 CNS was > 100 µM in each case.

Regarding `COc1cc(NCCC2CCCCN2)c2ncccc2c1` (stereo not given), the TGI in the assay with SW-620 colon was > 100 µM; in the assay with NCI/ADR-RES ovarian, > 100 µM; in the assay on OVCAR-4 ovarian, > 100 µM; in the assay with TK-10 renal, > 100 µM; in the assay with PC-3 prostate it was > 100 µM; with HL-60(TB) leukemia, 19.1 µM. The TGI was > 55.4 µM with SK-MEL-5 melanoma, > 67.2 µM in the assay on MDA-MB-435, 30.7 µM with HCC-2998 colon and > 100 µM in the assay on U251 CNS.

As for `COc1cc(C2c3cc4c(cc3OC(NNS(=O)(=O)c3ccc(C)cc3)C2C)OCO4)cc(OC)c1O` (stereo not given), the TGI with SW-620 colon was > 100 µM; in the assay on NCI/ADR-RES ovarian, 45.1 µM; in the assay with OVCAR-4 ovarian it was 40.1 µM; with TK-10 renal, 39.9 µM; in the assay with PC-3 prostate, 14 µM; in the assay on HL-60(TB) leukemia it was 35.4 µM. The TGI was 25 µM with SK-MEL-5 melanoma, 12.4 µM in the assay with MDA-MB-435, > 100 µM in the assay with HCC-2998 colon and 27.8 µM in the assay with U251 CNS.

As to `O=C1C(=O)N(c2cccc(C(F)(F)F)c2)C(=S)N1c1ccccc1`, the TGI with SW-620 colon is > 100 µM; with NCI/ADR-RES ovarian it was > 100 µM; in the assay with OVCAR-4 ovarian it was > 100 µM; with TK-10 renal it was 8.84 µM; with PC-3 prostate, > 100 µM; with HL-60(TB) leukemia, 84.5 µM. In addition, the TGI in the assay with SK-MEL-5 melanoma is 32 µM; in the assay with MDA-MB-435, 82.4 µM; with HCC-2998 colon, > 100 µM; in the assay on U251 CNS, > 100 µM.

In the case of `O=C1C2=C(CC3=C(C2)CS(=O)(=O)C3)C(=O)C2=C1CC1=C(C2)CS(=O)(=O)C1`, the TGI was 47.1 µM in the assay with SW-620 colon; 66.5 µM with NCI/ADR-RES ovarian; > 33.1 µM in the assay on OVCAR-4 ovarian; > 66.9 µM with TK-10 renal; 51.6 µM with PC-3 prostate; 22 µM with HL-60(TB) leukemia. The TGI with SK-MEL-5 melanoma is 37.3 µM; in the assay with MDA-MB-435, 21.1 µM; in the assay on HCC-2998 colon, > 51.6 µM; in the assay on U251 CNS, 31 µM.

Take `CC(=O)O[C@H]1CC[C@@]2(C)C(=CC[C@@H]3[C@@H]2CC[C@]2(C)c4c(C)nn(-c5ccccc5)c4C[C@@H]32)C1`: the TGI was > 100 µM in the assay on SW-620 colon; > 100 µM in the assay with NCI/ADR-RES ovarian; > 100 µM in the assay on OVCAR-4 ovarian; 51 µM in the assay on TK-10 renal; > 100 µM in the assay with PC-3 prostate; 77 µM with HL-60(TB) leukemia. The TGI in the assay with SK-MEL-5 melanoma is > 100 µM; with MDA-MB-435 it was > 100 µM; in the assay with HCC-2998 colon, 30.6 µM; in the assay on U251 CNS, > 100 µM.

With `COC(=O)c1cc(C(=CCC[C@H]2CC[C@@]3(C)C(CCC4C3CC[C@@]3(C)C4CC[C@@H]3C(C)CCCC(C)C)C2)c2cc(Cl)c(O)c(C(=O)OC)c2)cc(Cl)c1O` (stereo not given in full), the TGI in the assay on SW-620 colon, in the assay on NCI/ADR-RES ovarian, in the assay with OVCAR-4 ovarian, in the assay with TK-10 renal, with PC-3 prostate and in the assay on HL-60(TB) leukemia was > 10 µM each time. Further, the TGI with SK-MEL-5 melanoma, in the assay on MDA-MB-435, in the assay on HCC-2998 colon and in the assay on U251 CNS was > 10 µM each time.

`NC(=O)Cc1nc2c(N)ncnc2n1C1OC(CO)C(O)C1O` (stereo not given): the TGI with SW-620 colon, with NCI/ADR-RES ovarian, in the assay on OVCAR-4 ovarian, in the assay with TK-10 renal, in the assay on PC-3 prostate and in the assay with HL-60(TB) leukemia was > 100 µM in each case. Further, the TGI with SK-MEL-5 melanoma, with MDA-MB-435, in the assay with HCC-2998 colon and in the assay with U251 CNS was > 100 µM in each case.

Turning to `CS(=O)(=O)c1ccc(N=C/C=C/Nc2ccc(S(C)(=O)=O)cc2)cc1`, the TGI in the assay on SW-620 colon, in the assay on NCI/ADR-RES ovarian, in the assay with OVCAR-4 ovarian, with TK-10 renal, with PC-3 prostate and in the assay with HL-60(TB) leukemia was > 100 µM in each case. Besides, the TGI with SK-MEL-5 melanoma, with MDA-MB-435, with HCC-2998 colon and in the assay on U251 CNS was > 100 µM each time.

In the case of `C/C=C(\C)C(O)C(C)C(O)C/C=C(C)/C=C(\C)C/C(C)=C/C/C=C(\C)C(O)C(C)c1ccc(CCC)c(=O)o1` (stereo not given), the TGI is 28.4 µM in the assay on SW-620 colon; 29.7 µM with NCI/ADR-RES ovarian; 65.4 µM with OVCAR-4 ovarian; 71.8 µM with TK-10 renal; 21.3 µM in the assay with PC-3 prostate; > 100 µM in the assay on HL-60(TB) leukemia. Besides, the TGI with SK-MEL-5 melanoma is 14.3 µM; with MDA-MB-435, 22.7 µM; in the assay on HCC-2998 colon it was 26.4 µM; in the assay on U251 CNS, 24.1 µM.

On to `CC(C)[C@H](NC(=O)[C@H](N)Cc1ccc(N(CCCl)CCCl)cc1)C(=O)O`, for which the TGI in the assay on SW-620 colon, in the assay on NCI/ADR-RES ovarian, with OVCAR-4 ovarian, with TK-10 renal, in the assay on PC-3 prostate and in the assay with HL-60(TB) leukemia was > 100 µM throughout. Also, the TGI in the assay on SK-MEL-5 melanoma, in the assay on MDA-MB-435, in the assay with HCC-2998 colon and in the assay on U251 CNS was > 100 µM each time.

On to `CCOC(=O)C1=NN(c2ccc([N+](=O)[O-])cc2)[C@@]2(C)C[C@]3(c4ccccc4)N(c4ccc([N+](=O)[O-])cc4)N=C(C(=O)OCC)N3c3ccccc3N12`, for which the TGI with SW-620 colon, in the assay with NCI/ADR-RES ovarian, with OVCAR-4 ovarian, in the assay on TK-10 renal, in the assay on PC-3 prostate and with HL-60(TB) leukemia was > 100 µM throughout. Moreover, the TGI with SK-MEL-5 melanoma, in the assay with MDA-MB-435, in the assay on HCC-2998 colon and in the assay on U251 CNS was > 100 µM in each case.

Consider `O=c1[nH]nc(Cc2c[nH]c3ccccc23)o1`, for which the TGI with SW-620 colon, in the assay with NCI/ADR-RES ovarian, in the assay on OVCAR-4 ovarian, with TK-10 renal, in the assay on PC-3 prostate and in the assay with HL-60(TB) leukemia was > 100 µM each time. The TGI with SK-MEL-5 melanoma, with MDA-MB-435, with HCC-2998 colon and with U251 CNS was > 100 µM in each case.

For the compound `Cn1c(=O)c2c(nc3n2CCCC(=O)N3CC(O)CCl)n(C)c1=O` (stereo not given), the TGI in the assay with SW-620 colon, with NCI/ADR-RES ovarian, in the assay on OVCAR-4 ovarian, with TK-10 renal, in the assay on PC-3 prostate and in the assay with HL-60(TB) leukemia was > 100 µM in each case. In addition, the TGI in the assay with SK-MEL-5 melanoma, in the assay with MDA-MB-435, with HCC-2998 colon and in the assay with U251 CNS was > 100 µM in each case.

With `CC(C)=CC(Cc1ccccc1)S(=O)(=O)c1nc2ccccc2s1` (stereo not given), the TGI in the assay on SW-620 colon was determined as 37.2 µM; in the assay on NCI/ADR-RES ovarian it was 50 µM; in the assay with OVCAR-4 ovarian it was 37.1 µM; with TK-10 renal, 35.8 µM; in the assay with PC-3 prostate, 31.9 µM; with HL-60(TB) leukemia, 9.62 µM. The TGI in the assay with SK-MEL-5 melanoma worked out at 27.1 µM; in the assay on MDA-MB-435, 32.4 µM; with HCC-2998 colon, 33.6 µM; in the assay on U251 CNS, 29.4 µM.

As to `CC(C)C(=O)Nc1cc(C(F)(F)F)ccc1[N+](=O)[O-]`, the TGI with SW-620 colon, in the assay with NCI/ADR-RES ovarian, in the assay on OVCAR-4 ovarian, in the assay with TK-10 renal, with PC-3 prostate and in the assay with HL-60(TB) leukemia was > 100 µM each time. Moreover, the TGI in the assay on SK-MEL-5 melanoma, in the assay on MDA-MB-435, in the assay with HCC-2998 colon and in the assay on U251 CNS was > 100 µM in each case.

Turning to `COc1ccc(Cc2nnc(Nc3ccc(Br)cc3)[nH]c2=O)cc1OC`, the TGI in the assay on SW-620 colon, with NCI/ADR-RES ovarian, in the assay on OVCAR-4 ovarian, with TK-10 renal, with PC-3 prostate and in the assay on HL-60(TB) leukemia was > 100 µM throughout. The TGI in the assay on SK-MEL-5 melanoma is > 100 µM; with MDA-MB-435, 20.7 µM; with HCC-2998 colon it was > 100 µM; with U251 CNS it was > 100 µM.
